The numbers were not newly measured in article PMC9968064, “First Synthesis of DBU-Conjugated Cationic Carbohydrate Derivatives and Investigation of Their Antibacterial and Antifungal Activity” (International Journal of Molecular Sciences, 2023), which cites them from elsewhere.

The test system of series [1] is Escherichia coli (ATCC 8739). On the set-up: method as in PMID 24144185. The note with it: reference antibiotics; cited from earlier work.
Series [2] deals with Staphylococcus aureus ssp. aureus (ATCC 6538). The arrangement: method as in PMID 22866984. The conditions noted are these: reference antibiotics; cited from earlier work.
For series [3], the system named is Candida albicans (ATCC 10231). The arrangement: method as in PMID 32349998, PMID 25392352. The note with it: reference antifungal; cited from earlier work.

With `CC(C)(O/N=C(\C(=O)N[C@@H]1C(=O)N2C(C(=O)[O-])=C(C[n+]3ccccc3)CS[C@H]12)c1csc(N)n1)C(=O)O` [Ceftazidime], the “MIC Escherichia coli (ATCC 8739)” value in series [1] was 8 [42] µg/mL. Further, the “MIC Staphylococcus aureus (ATCC 6538)” value in series [2] is 8 [43, 44, 45] µg/mL.
Turning to `C[C@@H]1[C@H](O)[C@@H](C)/C=C/C=C/C=C/C=C/C=C/C=C/C=C/[C@H](O[C@@H]2O[C@H](C)[C@@H](O)[C@H](N)[C@@H]2O)C[C@@H]2O[C@](O)(C[C@@H](O)C[C@@H](O)[C@H](O)CC[C@@H](O)C[C@@H](O)CC(=O)O[C@H]1C)C[C@H](O)[C@H]2C(=O)O` [Amphotericin B], the “MIC Candida albicans (ATCC 10231)” value in series [3] is <0.5 [46, 47] µg/mL.
